According to US20110306570A1, “Na/K-Atpase Expression as an Indicator for the Treatment of Cancer” (UNIVERSITY OF TOLEDO, priority 2008, published 2011):
Entries after “also recorded” stand apart in the source; their conditions may differ.

Legend:
Na/K-ATPase α1 mRNA [1] = assay: Na/K-ATPase α1 mRNA by RT-PCR, DU145 cells; type: cell-based, human; details: 10 nM ouabain, 24 h
Protocol: (§1) Total RNA was extracted and applied for RT-PCR to probe Na/K-ATPase α1 as described in the Experimental Procedures section.
(§2) Quantitative RT-PCR: The cells were seeded in 6-cm dishes and serum-starved for 24 h after the confluence reached 90%. […] Total RNA was extracted using TRIzol and subjected to quantitative RT-PCR analysis. The assays were performed on the AB 7500 real time PCR system with the following protocol: 1 cycle (6 min at 95° C.), 40 cycles (30 s at 95° C., 30 s at 52° C., 30 s at 72° C., and 1 min at 85° C.), followed by a dissociation stage to ensure a single product. The reactions are in a total volume of 25 μl, including 1.25 µl of Sybr Green (Invitrogen), 0.125 µl of DNA polymerase (Denville), 2.5 µl of dNTP (Invitrogen), 10 ng of cDNA. Primer pairs were used at 5 μM concentration, and the sequences are:
(§3) The relative Na/K-ATPase al gene expression was calculated by comparative threshold (CT) method (ΔΔCT). To normalize the difference amounts of cDNA, GAPDH was used as an internal control.

Na/K-ATPase α1 mRNA [2] = assay: Na/K-ATPase α1 mRNA by RT-PCR, LLC-PK1 cells; type: cell-based, pig; details: 10 nM ouabain, 24 h
Protocol: as §1, §2, §3

Na/K-ATPase α1 [3] = target: T1, Na/K-ATPase α1 (Homo sapiens, UniProt P05023); assay: Na/K-ATPase α1 expression, MDA-MB-435s cells; type: cell-based; set-up: endogenous in cells; host or cells: MDA-MB-435s; details: 5 nM ouabain, 24 h, N=3, P<0.05
Excerpt: A significant reduction in α1 expression was detected (82±2% of control, N=3, P<0.05). Thus, ouabain-induced changes in α1 expression are clearly correlated with its effects on cell growth.

Na/K-ATPase α1 [4] = target: T1, Na/K-ATPase α1; assay: Na/K-ATPase α1 degradation with cycloheximide, BT-20 cells; type: cell-based; set-up: endogenous in cells; host or cells: BT20; details: cycloheximide pre-treatment, 10 nM ouabain for 6, 16 and 24 h
Protocol: FIG. 6C: BT20 cells were treated as in panel B and assayed for Na/K-ATPase α1. *p<0.05.

Akt [5] = assay: Akt phosphorylation (pAkt) by Western blot, C2-9 cells; type: cell-based, pig; details: ouabain 15 min
Protocol: The cell lysates were analyzed for pAkt.

LLC-PK1 cells [6] = assay: Cell growth curve (cell counting), LLC-PK1 cells; type: cell-based, pig; details: 10 and 50 nM ouabain
Protocol: FIG. 1B: The above three cell lines were subcultured in 12-well plates (50,000 cells/well) and serum starved.
Cell growth curve and cell cycle measurement: Cells were sub-cultured in 12 well plates at 50,000/well in 1 ml culture medium for 24 h. […] At each indicated time point, three wells of control or treated cells were trypsinized and counted. For cell cycle measurement, cells were trypsinized and re-suspended in Citrate buffer (8.55% sucrose, 1.18% Na citrated, 5% DMSO, pH 7.6), and stained with propidium iodide (PI). The stained cells were then analyzed by Flow Cytometry.

Na/K-ATPase α1 [7] = target: T2, Na/K-ATPase α1 (Sus scrofa, UniProt P05024); assay: Na/K-ATPase α1 degradation with cycloheximide, LLC-PK1 cells; type: cell-based, pig; details: cycloheximide pre-treatment, 10 nM ouabain for 6, 16 and 24 h
T2 construct: endogenous in cells; host or cells: LLC-PK1 (ATCC) and its caveolin-1 knock-down line C2-9
Excerpt: Cells without any treatment or only treated with CHX were used as control. The cells were collected at different time points and lysed in RIPA buffer. Equal amount of protein was loaded to analyze the Na/K-ATPase by Western blot. The representative Western blot and the quantification data from 4 experiments were shown. The Na/K-ATPase α1 amount at each time point was normalized against the control at the same time point.

LLC-PK1 cells [8] = assay: MTT cell growth assay, LLC-PK1 cells; type: cell-based, pig
Protocol: FIG. 1A: LLC-PK1 cells, BT20 cells, and DU145 cells were subcultured in 96-well plates (10,000 cells/well) and serum starved. […] Cells were solublized by adding 100 μl/well detergent provided by ATCC after 90 min of incubation and OD570 was then measured.
Cell growth was then measured using MTT assay.
(§4) MTT assay for measuring cell proliferation: Cells were sub-cultured in 96 well plates at 10,000 cells/well in 100 μl culture medium. […] Ten μl MTT reagent (3-4,5-dimethylthiazol-2-yl)-2,5-diphenyltetrazolium bromide) was added to each well for 90 min. The formazan crystal was dissolved with detergent and the OD value was measured at 570 nm.

Akt [9] = assay: Akt phosphorylation (pAkt) by Western blot, DU145 cells; type: cell-based, human; details: ouabain 15 min
Excerpt: The pAkt was probed by Western blot.

Akt [10] = assay: Akt phosphorylation, PY-17 cells; type: cell-based, pig; details: ouabain, data not shown
Akt [11] = assay: Akt phosphorylation (pAkt) by Western blot, BT20 cells; type: cell-based, human; details: ouabain 15 min
[12] = tested on: P-11 cells (control vector-transfected LLC-PK1); assay: MTT cell growth assay, control P-11 cells; type: cell-based, pig; details: ouabain 1 to 10 nM, 16 h
Protocol: as §4

Na/K-ATPase α1 [13] = target: T1, Na/K-ATPase α1; assay: Na/K-ATPase α1 endocytosis by confocal immunostaining, DU145 cells; type: cell-based; set-up: endogenous in cells; host or cells: DU145; details: 10 nM ouabain
Protocol: Na/K-ATPase al was immunostained and visualized using Leica confocal microscope. The red arrows indicate the endocytosed vesicles containing Na/K-ATPase α1.
The cells were fixed with ice-cold methanol for 15 min and blocked with Signal Enhancer from Invitrogen. Monoclonal anti-Na/K-ATPase α1 antibody was then incubated with the cells overnight at 4° C. After 3 washes, a secondary Alexa 488-conjugated anti-mouse antibody was added and incubated for 2 h at room temperature. The coverslip was washed, mounted and imaged using a Leica confocal microscope.

Na/K-ATPase α1 mRNA [14] = assay: Na/K-ATPase α1 mRNA by RT-PCR, BT20 cells; type: cell-based, human; details: 10 nM ouabain, 24 h
Protocol: as §1, §2, §3

C2-9 cells = assay: MTT cell growth assay, caveolin-1 knock-down C2-9 cells; type: cell-based, pig; details: C2-9 caveolin-1 knockdown cells
Protocol: as §4

Na/K-ATPase α1 [15] = target: T1, Na/K-ATPase α1; assay: Na/K-ATPase α1 expression by Western blot, BT20 cells; type: cell-based; set-up: endogenous in cells; host or cells: BT20, DU145, MDA-MB-435s

C[C@@H]1O[C@@H](O[C@H]2C[C@@H](O)[C@]3(CO)[C@H]4[C@H](O)C[C@]5(C)[C@@H](C6=CC(=O)OC6)CC[C@]5(O)[C@@H]4CC[C@]3(O)C2)[C@H](O)[C@H](O)[C@H]1O [ouabain]
levels of α1 mRNA (Na/K-ATPase α1 mRNA [1]): no effect on levels of α1 mRNA | levels of α1 mRNA (Na/K-ATPase α1 mRNA [2]): no effect on levels of α1 mRNA | Na/K-ATPase α1 expression (Na/K-ATPase α1 [3]): 82±2 % of control | degradation of Na/K-ATPase α1 subunit (Na/K-ATPase α1 [4]): more degradation of al subunit; also recorded: more degradation of the a1 subunit | Akt stimulation (pAkt) (Akt [5]): failed to stimulate Akt | cell number as a function of time (LLC-PK1 cells [6]): increased the number of LLC-PK1 cells in a time-dependent manner | degradation of Na/K-ATPase α1 subunit (Na/K-ATPase α1 [7]): more degradation of al subunit; also recorded: more degradation of the a1 subunit | cell growth with ouabain in rapamycin pre-treated cells (MTT) (LLC-PK1 cells [8]; LLC-PK1 cells pre-treated with rapamycin, 10 nM ouabain): significant inhibition of cell growth; also recorded: significant inhibition of cell proliferation | effect on cell growth (MTT) (LLC-PK1 cells [8]; LLC-PK1 cells, ouabain 1 to 50 nM, 24 h): stimulated cell growth | Akt phosphorylation (Akt [9]): failed to do so | Akt phosphorylation (Akt [10]): no effect on Akt phosphorylation | Akt phosphorylation (Akt [11]): failed to do so | effect on cell growth (MTT) [12]: stimulated the cell growth | endocytosis of Na/K-ATPase α1 (α1-positive vesicles) (Na/K-ATPase α1 [13]): many al-positive vesicles were accumulated | levels of α1 mRNA (Na/K-ATPase α1 mRNA [14]): no effect on levels of α1 mRNA | ouabain-induced cell growth response (MTT) (C2-9 cells): abolished ouabain-induced cell growth stimulation | cellular amount of Na/K-ATPase α1 (Na/K-ATPase α1 [15]; BT20 cells, ouabain 24 h or 72 h exposure): reduced the cellular amount of α1 | Na/K-ATPase α1 expression, 72 h versus 24 h (Na/K-ATPase α1 [15]; BT-20 cells, after 72 h of ouabain exposure): further reduction in al expression
